# How the values were obtained:
# Experiment in all cases: relative viability (nuclei count vs DMSO), 5 days (fraction); higher = more cells survive
# AZ628 + Palbociclib = compound: CC1=C(C=C(C=C1)NC(=O)C2=CC(=CC=C2)C(C)(C)C#N)NC3=CC4=C(C=C3)N=CN(C4=O)C [AZ628] + CC(=O)c1c(C)c2cnc(Nc3ccc(N4CCNCC4)cn3)nc2n(C2CCCC2)c1=O [Palbociclib] (partner 0.5 µM)
# Summary of the method: (§1)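 Relative viability was taken as the ratio of nuclei in treated wells to nuclei in vehicle wells. Lung cancer cell lines in 1536-well plates received compounds by pin tool one day after seeding, either one drug alone or a fixed anchor-drug dose plus five library-drug doses (not always all listed) in √10 steps. Nuclei were counted on 4× images after 5 days of treatment, and values are medians of duplicate plates.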
# [1] = compound: C[As](C)SC[C@H](NC(=O)CC[C@H](N)C(=O)O)C(=O)NCC(=O)O [Darinaparsin] + C[C@@H](Oc1cc(-c2cnn(C3CCNCC3)c2)cnc1N)c1c(Cl)ccc(F)c1Cl [Crizotinib] (partner 1 µM)
# Summary of the method: as §1
# QS11 + Navitoclax = compound: C1CC2=C(C1)C=C(C=C2)OC3=NC(=C4C(=N3)N(C=N4)CC5=CC=C(C=C5)C6=CC=CC=C6)N[C@@H](CC7=CC=CC=C7)CO [QS11] + CC1(C)CCC(c2ccc(Cl)cc2)=C(CN2CCN(c3ccc(C(=O)NS(=O)(=O)c4ccc(N[C@H](CCN5CCOCC5)CSc5ccccc5)c(S(=O)(=O)C(F)(F)F)c4)cc3)CC2)C1 [Navitoclax] (partner 0.5 µM)
# Summary of the method: as §1
# AZ628 + Dasatinib = compound: CC1=C(C=C(C=C1)NC(=O)C2=CC(=CC=C2)C(C)(C)C#N)NC3=CC4=C(C=C3)N=CN(C4=O)C [AZ628] + Cc1nc(Nc2ncc(C(=O)Nc3c(C)cccc3Cl)s2)cc(N2CCN(CCO)CC2)n1 [Dasatinib] (partner 0.075 µM)
# Summary of the method: as §1
cell line,measurement,setting,value
LCLC-97TM1,relative viability,AZ628 + Palbociclib; first compound 0.08 µM,0.231
same,relative viability,AZ628 + Palbociclib; first compound 0.253 µM,0.217
same,relative viability,AZ628 + Palbociclib; first compound 0.8 µM,0.193
same,relative viability,AZ628 + Palbociclib; first compound 2.53 µM,0.182
same,relative viability,AZ628 + Palbociclib; first compound 8 µM,0.113
same,relative viability,[1]; first compound 0.08 µM,0.517
same,relative viability,[1]; first compound 0.8 µM,0.354
same,relative viability,[1]; first compound 2.53 µM,0.271
same,relative viability,[1]; first compound 8 µM,0.372
same,relative viability,QS11 + Navitoclax; first compound 0.08 µM,0.414
same,relative viability,QS11 + Navitoclax; first compound 0.253 µM,0.328
same,relative viability,QS11 + Navitoclax; first compound 0.8 µM,0.387
same,relative viability,QS11 + Navitoclax; first compound 2.53 µM,0.503
same,relative viability,QS11 + Navitoclax; first compound 8 µM,0.432
same,relative viability,AZ628 + Dasatinib; first compound 0.08 µM,0.769
same,relative viability,AZ628 + Dasatinib; first compound 0.253 µM,0.791
same,relative viability,AZ628 + Dasatinib; first compound 0.8 µM,0.508
same,relative viability,AZ628 + Dasatinib; first compound 2.53 µM,0.477
same,relative viability,AZ628 + Dasatinib; first compound 8 µM,0.168

# Reference: the supplement of paper PMC10307832
